For one data set, the system named is Pseud. aeruginosa UI-18. As to the kind of experiment: in vitro antibacterial activity, microtitration dilution (MIC), Pseud. aeruginosa UI-18. As to conditions: Pseudomonas aeruginosa, UI18, read-out: minimum inhibiting concentration (MIC). Type of data set: cell-based. Put shortly: (§1)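 Readout: lowest compound concentration inhibiting growth (MIC, μg/mL), measured by serial dilution in microtitration format.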

The subject of data set [1] is Esch. coli Vogel. As to the kind of experiment: median protective dose in mice given lethal systemic infections, Esch. coli Vogel. It is filed as in vivo. As to conditions: Escherichia coli, single dose at time of challenge, read-out: median protective dose (PD50). As for the experimental part:
(§2) The in vivo activity is obtained when the compounds are tested according to the procedure of Miller, et al (Proc. Soc. Exp. Biol. Med. 57, 261, 1944). The median protective dose (PD50) was determined in mice given lethal systemic infections. Single doses of compound were given at time of challenge.
(§3) By use of the above methods, the following minimum inhibiting concentration values (MICs in μg/mL), PD50 's in mg/kg, no effect phototoxicity dose in mg/kg and the cytotoxicity IC50 in μg/mL were obtained for representative enantiomers of the invention and compounds of the prior art as shown in the table.
(§4) The in vivo data as PD50 s are reported below the line of MICs for the same compound.

A short description of data set [2]: cytotoxicity, hamster V-79 cells, colony reduction. The note with it: 3 hours treatment, colonies counted after 5 days, read-out: Cytotox (cytotoxicity IC50). Type of data set: cell-based. As for the experimental part:
The cytotoxicity data is obtained using hamster V-79 cells. The cells were suspended in tissue culture medium and grown overnight. Cells were treated with drug for 3 hours, washed free of drug and then replated, and the colonies counted after 5 days. The concentration of drug that reduced colones by 50% relative to control was recorded.
as §3

Another data set relates to Ent. cloacae MA2646. As to the kind of experiment: in vitro antibacterial activity, microtitration dilution (MIC), Ent. cloacae MA2646. Type of data set: cell-based. The note with it: Enterobacter cloacae, read-out: minimum inhibiting concentration (MIC). Put shortly: as §1
The next data set deals with Staph. aureus UC-76. As to the kind of experiment: in vitro antibacterial activity, microtitration dilution (MIC), Staph. aureus UC-76. Type of data set: cell-based. As to conditions: Staphylococcus aureus, UC76, read-out: minimum inhibiting concentration (MIC). Put shortly: as §1
The test system of data set [3] is Strep. pyogenes C-203. As to the kind of experiment: in vitro antibacterial activity, microtitration dilution (MIC), Strep. pyogenes C-203. It is filed as cell-based. The note with it: Streptococcus pyogenes, C203, read-out: minimum inhibiting concentration (MIC). Put shortly: as §1
The next data set concerns Staph. aureus H 228. As to the kind of experiment: in vitro antibacterial activity, microtitration dilution (MIC), Staph. aureus H 228. As to conditions: Staphylococcus aureus, H228, read-out: minimum inhibiting concentration (MIC). Type of data set: cell-based. In outline: as §1
The subject of a further data set is Klebs. pneumoniae MGH-2. As to the kind of experiment: in vitro antibacterial activity, microtitration dilution (MIC), Klebs. pneumoniae MGH-2. It is filed as cell-based. The note with it: Klebsiella pneumoniae, MGH2, read-out: minimum inhibiting concentration (MIC). Put shortly:
as §1

For data set [4], the system named is Strep. pheumoniae SV-1. As to the kind of experiment: in vitro antibacterial activity, microtitration dilution (MIC), Strep. pneumoniae SV-1. The note with it: Streptococcus pneumoniae, SV1, read-out: minimum inhibiting concentration (MIC). Type of data set: cell-based. Put shortly: as §1
The subject of the next data set is Prot. rettgeri M 1771. As to the kind of experiment: in vitro antibacterial activity, microtitration dilution (MIC), Prot. rettgeri M 1771. It is filed as cell-based. As to conditions: Providencia rettgeri, M1771, read-out: minimum inhibiting concentration (MIC). Put shortly: as §1
The next data set deals with Strep. faecalis MGH-2. As to the kind of experiment: in vitro antibacterial activity, microtitration dilution (MIC), Strep. faecalis MGH-2. Type of data set: cell-based. The note with it: Enterococcus faecalis, MGH2, read-out: minimum inhibiting concentration (MIC). Put shortly: as §1
Data set [5] deals with Strep. pyogenes C-203. As to the kind of experiment: median protective dose in mice given lethal systemic infections, Strep. pyogenes C-203. As to conditions: Streptococcus pyogenes, single dose at time of challenge, read-out: median protective dose (PD50). Type of data set: in vivo. As for the experimental part: as §2, §3, §4
A further data set in a line: in vivo. Details: species or system mice. The note with it: mouse, po. As for the experimental part: The phototoxicity data is obtained using depilated mice. The compound was administered orally each day for four successive days, followed each day by 3 hours of UVA radiation. The mice were examined for any positive signs (redness, erythema) relative to control animals. The no effect dose and the 50% effect dose were determined. By use of the above methods, the following minimum inhibiting concentration values (MICs in μg/mL), PD50 's in mg/kg, no effect phototoxicity dose in mg/kg and the cytotoxicity IC50 in μg/mL were obtained for representative enantiomers of the invention and compounds of the prior art as shown in the table.

The subject of data set [6] is Esch. coli Vogel. As to the kind of experiment: in vitro antibacterial activity, microtitration dilution (MIC), Esch. coli Vogel. Type of data set: cell-based. The note with it: Escherichia coli, read-out: minimum inhibiting concentration (MIC). In outline: as §1
For data set [7], the system named is Strep. pheumoniae SV-1. As to the kind of experiment: median protective dose in mice given lethal systemic infections, Strep. pneumoniae SV-1. Type of data set: in vivo. The note with it: Streptococcus pneumoniae, single dose at time of challenge, read-out: median protective dose (PD50). As for the experimental part: as §2, §3, §4

The values that follow come from patent US5563155A, “Individual stereosiomers of 7-[3-(aminoalkyl)-1-pyrrolidinyl]-quinolones and naphthyridones as antibacterial agents” (Warner-Lambert Company, priority 1995, dated 1996).

SMILES strings stand for the structures. Values after ≈ are worked out from the molar mass of the structure shown. Read-outs that look alike come from different tables or passages of the source. Where only a bound is given, the exact number is not on record here.

As for `CN[C@H](C)[C@@H]1CCN(c2c(F)c(N)c3c(=O)c(C(=O)O)cn(C4CC4)c3c2F)C1` [Example 41, 3R,1R-5-amino-1-cyclopropyl-6,8-difluoro-7-[3-(1-N-methylaminoethyl)-1-pyrrolidinyl]-1,4-dihydro-4-oxo-3-quinoline carboxylic acid], the MIC in the data set on Pseud. aeruginosa UI-18 was found to be 0.8 µg/mL (≈ 1.97 µM); in the data set with Ent. cloacae MA2646, 0.05 µg/mL (≈ 0.123 µM); in the data set on Staph. aureus UC-76, 0.003 µg/mL (≈ 0.00738 µM); with Strep. pyogenes C-203 [3], 0.006 µg/mL (≈ 0.0148 µM); with Staph. aureus H 228, 0.006 µg/mL (≈ 0.0148 µM); in the data set on Klebs. pneumoniae MGH-2 it was 0.1 µg/mL (≈ 0.246 µM). Also, the MIC is 0.006 µg/mL (≈ 0.0148 µM) in the data set on Strep. pheumoniae SV-1 [4], 0.2 µg/mL (≈ 0.492 µM) in the data set on Prot. rettgeri M 1771, 0.013 µg/mL (≈ 0.032 µM) in the data set with Strep. faecalis MGH-2 and 0.05 µg/mL (≈ 0.123 µM) in the data set with Esch. coli Vogel [6]. Moreover, the ED50 with Esch. coli Vogel [1] (PO) stood at 3 mg/kg; in the data set with Esch. coli Vogel [1] (SC) it was 2 mg/kg; with Strep. pyogenes C-203 [5] (C203, PO) it was 2 mg/kg; in the data set with Strep. pyogenes C-203 [5] (C203, SC), 0.7 mg/kg. Moreover, the CC50 at 3 h in data set [2] came to 33 µg/mL (≈ 81.2 µM). This compound also returned an NOAEL at 96 h in the data set “in vivo” of 30 mg/kg.

With `C[C@H](N)[C@@H]1CCN(c2cc3c(cc2F)c(=O)c(C(=O)O)cn3C2CC2)C1` [Example 3, 3R,1S-1-cyclopropyl-6-fluoro-7-[3-(1-aminoethyl)-1-pyrrolidinyl]-1,4-dihydro-4-oxo-3-quinolinecarboxylic acid], the MIC with Pseud. aeruginosa UI-18 was determined as 0.4 µg/mL (≈ 1.11 µM); with Ent. cloacae MA2646 it was 0.05 µg/mL (≈ 0.139 µM); in the data set with Staph. aureus UC-76, 0.003 µg/mL (≈ 0.00835 µM); in the data set with Strep. pyogenes C-203 [3], 0.003 µg/mL (≈ 0.00835 µM); in the data set on Staph. aureus H 228, 0.05 µg/mL (≈ 0.139 µM); with Klebs. pneumoniae MGH-2 it was 0.1 µg/mL (≈ 0.278 µM). Moreover, the MIC in the data set on Strep. pheumoniae SV-1 [4] was 0.003 µg/mL (≈ 0.00835 µM); with Prot. rettgeri M 1771, 0.2 µg/mL (≈ 0.556 µM); in the data set on Strep. faecalis MGH-2 it was 0.025 µg/mL (≈ 0.0696 µM); in the data set with Esch. coli Vogel [6] it was 0.05 µg/mL (≈ 0.139 µM). The ED50 was determined as 47 mg/kg with Esch. coli Vogel [1] (PO); 0.9 mg/kg in the data set on Esch. coli Vogel [1] (SC); 11 mg/kg in the data set with Strep. pheumoniae SV-1 [7] (SV1, PO); 0.7 mg/kg in the data set with Strep. pheumoniae SV-1 [7] (SV1, SC). In addition, the CC50 at 3 h in data set [2] came out at 42 µg/mL (≈ 117 µM).

With `C[C@H](N)[C@H]1CCN(c2cc3c(cc2F)c(=O)c(C(=O)O)cn3C2CC2)C1` [Example 2, 3S,1S-1-cyclopropyl-6-fluoro-7-[3-(1-aminoethyl)-1-pyrrolidinyl]-1,4-dihydro-4-oxo-3-quinolinecarboxylic acid], the MIC with Pseud. aeruginosa UI-18 amounted to 1.5 µg/mL (≈ 4.17 µM); with Ent. cloacae MA2646, 0.2 µg/mL (≈ 0.556 µM); in the data set on Staph. aureus UC-76, 0.1 µg/mL (≈ 0.278 µM); in the data set on Strep. pyogenes C-203 [3], 0.1 µg/mL (≈ 0.278 µM); in the data set on Staph. aureus H 228, 0.8 µg/mL (≈ 2.23 µM); with Klebs. pneumoniae MGH-2 it was 0.4 µg/mL (≈ 1.11 µM). The MIC is 0.2 µg/mL (≈ 0.556 µM) in the data set on Strep. pheumoniae SV-1 [4], 0.8 µg/mL (≈ 2.23 µM) in the data set with Prot. rettgeri M 1771, 0.4 µg/mL (≈ 1.11 µM) with Strep. faecalis MGH-2 and 0.2 µg/mL (≈ 0.556 µM) in the data set on Esch. coli Vogel [6]. Besides, the ED50 is 100 mg/kg in the data set with Esch. coli Vogel [1] (PO); 4 mg/kg in the data set with Esch. coli Vogel [1] (SC); greater than 100 mg/kg in the data set with Strep. pheumoniae SV-1 [7] (SV1, PO); 12 mg/kg in the data set on Strep. pheumoniae SV-1 [7] (SV1, SC). Also, in data set [2], the CC50 at 3 h was 160 µg/mL (≈ 445 µM).

As for `C[C@H](N)[C@@H]1CCN(c2nc3c(cc2F)c(=O)c(C(=O)O)cn3C2CC2)C1` (relative stereo) [reference compound], the CC50 at 3 h in data set [2] came out at 48 µg/mL (≈ 133 µM). In addition, the MIC turned out to be 0.05 µg/mL (≈ 0.139 µM) with Ent. cloacae MA2646; 0.05 µg/mL (≈ 0.139 µM) in the data set on Staph. aureus H 228; 0.1 µg/mL (≈ 0.277 µM) in the data set on Klebs. pneumoniae MGH-2; 0.2 µg/mL (≈ 0.555 µM) with Prot. rettgeri M 1771; 0.05 µg/mL (≈ 0.139 µM) in the data set on Strep. faecalis MGH-2. In the data set “in vivo”, this compound registered an NOAEL at 96 h of 55 mg/kg.

A word on the NOAEL: it is the highest tested level that showed no adverse finding.
